Data: patent publication US20230257351A1, “SUBSTITUTED N-[…] HAVING P2X4 RECEPTOR ANTAGONISTIC ACTIVITY” (Bayer Aktiengesellschaft, priority 2020, published 2023)

What was measured:
rat P2X4 = molecular target: T1, rat P2X4 (Rattus norvegicus, UniProt P51577); assay: FLIPR Method for Rat P2X4 1321N1 Astrocytoma Cells; format: cell-based; settings: 1321N1 stably expressing rat P2X4; agonist MgATP 5 μM (EC80)
T1 construct: expressed in transfected cells
T1 sequence (P51577 1-388): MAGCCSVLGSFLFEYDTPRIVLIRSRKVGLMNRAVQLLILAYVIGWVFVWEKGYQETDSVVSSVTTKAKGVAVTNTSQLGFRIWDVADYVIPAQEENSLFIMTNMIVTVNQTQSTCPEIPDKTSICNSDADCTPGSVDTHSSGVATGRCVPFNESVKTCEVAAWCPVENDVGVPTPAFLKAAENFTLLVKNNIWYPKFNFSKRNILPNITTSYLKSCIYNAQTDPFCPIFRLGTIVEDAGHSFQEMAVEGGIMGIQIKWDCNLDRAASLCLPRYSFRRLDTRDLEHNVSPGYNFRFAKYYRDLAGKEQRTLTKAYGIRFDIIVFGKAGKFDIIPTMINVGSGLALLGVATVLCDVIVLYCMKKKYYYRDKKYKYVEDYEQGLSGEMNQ
Protocol: Compounds were tested on a 1321N1 cell line stably expressing rat P2X4. Cells were cultured on collagen-I-coated 384-well plates at a density of 10,000 cells/well and incubated overnight at 37° C., 5% CO2. P2X4 function was assessed by measuring intracellular calcium fluxes caused by Magnesium-ATP (MgATP) using the calcium-chelating dye Fluo8-AM (Molecular Devices) with the Fluorescent Imaging Plate Reader Tetra (FLIPR^Tetra; Molecular Devices CA). On the day of the assay, the medium was removed and the cells were incubated for 30 minutes at 37° C. and 5% CO2 in 30 μl of dye buffer (Hank's balanced salt solution, 10 mM HEPES, 1.8 mM CaCl2, 1 mM MgCl2, 2 mM probenecid, 5 mM D-glucose monohydrate, 5 μM Fluo8-AM, pH=7.4).
Compounds diluted in probenecid buffer (Hank's balanced salt solution, 10 mM HEPES, 1.8 mM CaCl2, 1 mM MgCl2, 2 mM probenecid, 5 mM D-glucose monohydrate, pH=7.4) at ten concentrations ranging from 25 μM to 1 nM (final concentration) were dispensed and incubated for 30 minutes at room temperature. The agonist, MgATP (Sigma-Aldrich Chemie GmbH, DE), was added at a final concentration of 5 μM, representing the EC80 routinely determined. The final assay volume was 50 μl and final DMSO concentration was 0.5%.
The fluorescence intensity reflecting intracellular calcium changes was recorded before and after MgATP addition, at an excitation and emission wavelengths of 470-495 nm and 515-575 nm respectively.
The compounds were tested in triplicates and fluorescence intensity raw data normalized to the agonist control and fitted to the four-parameter logistic equation:
Y=Bottom+(Top−Bottom)/(1+10^((Log IC50−X)*HillSlope))
Assay plate acceptance was based on the signal window (S/B)[…] and the reference compound pIC50 within ±[…] the mean of historic pIC50 of the compound. Failure to meet two of the three criteria determined exclusion of the plate's results. In Table 10 below the results for the assays are reported

human P2X4 = molecular target: T2, human P2X4 (Homo sapiens, UniProt Q99571); assay: Human P2X4 HEK Cell FLIPR Assay; format: cell-based; settings: HEK293 stably expressing human P2X4, agonist Bz-ATP 3 μM (EC80); for IC50: read-out: Human P2X4 HEK Cells (FLIPR Assay) avg IC50
T2 construct: expressed in transfected cells
T2 sequence (Q99571 1-388): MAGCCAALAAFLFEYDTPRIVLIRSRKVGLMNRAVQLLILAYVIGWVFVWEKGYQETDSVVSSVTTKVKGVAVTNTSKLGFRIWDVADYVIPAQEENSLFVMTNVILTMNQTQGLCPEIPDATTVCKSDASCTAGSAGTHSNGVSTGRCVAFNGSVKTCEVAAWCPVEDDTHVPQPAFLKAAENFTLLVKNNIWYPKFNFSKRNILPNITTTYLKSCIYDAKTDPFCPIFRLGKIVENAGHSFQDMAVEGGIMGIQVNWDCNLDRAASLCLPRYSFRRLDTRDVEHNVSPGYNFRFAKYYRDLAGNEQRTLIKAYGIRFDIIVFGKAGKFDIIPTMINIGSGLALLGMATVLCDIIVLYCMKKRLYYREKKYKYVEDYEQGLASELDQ
How it was run: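 HEK293 cells stably expressing human P2X4 were loaded with Fluo8-AM (30 min, 37 °C, HBSS/HEPES pH 7.4 with probenecid), then preincubated 30 min at room temperature with compound, 25 μM–1 nM final, 0.5% DMSO. Bz-ATP-evoked calcium fluorescence was read on FLIPR; data were normalized to agonist control and given a four-parameter fit for IC50.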

With `CC(=O)N(c1ccc(F)cc1)c1cc(NC(=O)Cc2ccc(F)cc2Cl)ccn1` [Example 37, N-{4-[2-(2-chloro-4-fluorophenyl)acetamido]pyridin-2-yl}-N-(4-fluorophenyl)acetamide] the IC50 (rat P2X4) was 242 nM, the “Rat P2X4 1321N1 Astrocytoma Cells (FLIPR Assay) avg Efficacy” value (“Rat P2X4 1321N1 Astrocytoma Cells” for short) (rat P2X4) was 96% and the “Human P2X4 HEK Cells (FLIPR Assay) avg Efficacy” value (“Human P2X4 HEK Cells” below) (human P2X4) was 95%. It also gave an IC50 (human P2X4) of 894 nM.
`CC(=O)N(c1ccc(F)cc1)c1cc(NC(=O)Cc2c(Cl)cccc2Cl)ccn1` [Example 38, N-{4-[2-(2,6-dichlorophenyl)acetamido]pyridin-2-yl}-N-(4-fluorophenyl)acetamide] was tested, and the IC50 (rat P2X4) was 136 nM, the “Rat P2X4 1321N1 Astrocytoma Cells” value (rat P2X4) was 98% and the “Human P2X4 HEK Cells” value (human P2X4) was 96%. It also gave an IC50 (human P2X4) of 232 nM.
`CC(=O)N(c1ccc(F)cc1)c1cc(NC(=O)Cc2c(Cl)cc(F)cc2Cl)ccn1` [Example 39, N-{4-[2-(2,6-dichloro-4-fluorophenyl)acetamido]pyridin-2-yl}-N-(4-fluorophenyl)acetamide] was tested, and the IC50 (rat P2X4) was 152 nM, the “Rat P2X4 1321N1 Astrocytoma Cells” value (rat P2X4) was 98% and the “Human P2X4 HEK Cells” value (human P2X4) was 100%. For the same compound, the IC50 (human P2X4) was 335 nM.
In the case of `CC(=O)N(c1ccc(F)cc1)c1cc(NC(=O)Cc2c(F)cccc2Cl)ccn1` [Example 40, N-{4-[2-(2-chloro-6-fluorophenyl)acetamido]pyridin-2-yl}-N-(4-fluorophenyl)acetamide], the IC50 (rat P2X4) is reported as 194 nM, the “Rat P2X4 1321N1 Astrocytoma Cells” value (rat P2X4) is reported as 75% and the “Human P2X4 HEK Cells” value (human P2X4) is reported as 90%. For the same compound, the IC50 (human P2X4) was 308 nM.
With `CC(=O)N(c1ccc(F)cc1)c1cc(NC(=O)Cc2c(F)cc(F)cc2Cl)ccn1` [Example 41, N-{4-[2-(2-chloro-4,6-difluorophenyl)acetamido]pyridin-2-yl}-N-(4-fluorophenyl)acetamide] the IC50 (rat P2X4) was 115 nM, the “Rat P2X4 1321N1 Astrocytoma Cells” value (rat P2X4) was 91% and the “Human P2X4 HEK Cells” value (human P2X4) was 94%. For the same compound, the IC50 (human P2X4) was 589 nM.
With `CC(=O)N(c1ccc(F)cc1)c1cc(NC(=O)Cc2ccccc2OC(F)(F)F)ccn1` [Example 42, N-(4-fluorophenyl)-N-(4-{2-[2-(trifluoromethoxy)phenyl]acetamido}pyridin-2-yl)acetamide] the IC50 (rat P2X4) was 1360 nM, the “Rat P2X4 1321N1 Astrocytoma Cells” value (rat P2X4) was 96% and the “Human P2X4 HEK Cells” value (human P2X4) was 98%. The IC50 (human P2X4) was 350 nM.
`CC(=O)N(c1ccc(C)cc1)c1cc(NC(=O)Cc2cccc(F)c2Cl)ccn1` [Example 45, N-{4-[2-(2-chloro-3-fluorophenyl)acetamido]pyridin-2-yl}-N-(4-methylphenyl)acetamide] was tested, and the IC50 (rat P2X4) was 1180 nM, the “Rat P2X4 1321N1 Astrocytoma Cells” value (rat P2X4) was 100% and the “Human P2X4 HEK Cells” value (human P2X4) was 102%. It also gave an IC50 (human P2X4) of 485 nM.
`CC(=O)N(c1ccc(F)c(Cl)c1)c1cc(NC(=O)Cc2ccccc2Cl)ccn1` [Example 50, N-(3-chloro-4-fluorophenyl)-N-{4-[2-(2-chlorophenyl)acetamido]pyridin-2-yl}acetamide] was tested, and the IC50 (rat P2X4) was 213 nM, the “Rat P2X4 1321N1 Astrocytoma Cells” value (rat P2X4) was 96% and the “Human P2X4 HEK Cells” value (human P2X4) was 95%. For the same compound, the IC50 (human P2X4) was 351 nM.
With `CC(=O)N(c1ccc(F)c(Cl)c1)c1cc(NC(=O)Cc2ccc(F)cc2Cl)ccn1` [Example 51, N-(3-chloro-4-fluorophenyl)-N-{4-[2-(2-chloro-4-fluorophenyl)acetamido]pyridin-2-yl}acetamide] the IC50 (rat P2X4) was 177 nM, the “Rat P2X4 1321N1 Astrocytoma Cells” value (rat P2X4) was 96% and the “Human P2X4 HEK Cells” value (human P2X4) was 98%. The IC50 (human P2X4) was 493 nM.
In the case of `CC(=O)N(c1ccc(F)c(Cl)c1)c1cc(NC(=O)Cc2cccc(F)c2Cl)ccn1` [Example 52, N-(3-chloro-4-fluorophenyl)-N-{4-[2-(2-chloro-3-fluorophenyl)acetamido]pyridin-2-yl}acetamide], the IC50 (rat P2X4) is reported as 358 nM, the “Rat P2X4 1321N1 Astrocytoma Cells” value (rat P2X4) is reported as 99% and the “Human P2X4 HEK Cells” value (human P2X4) is reported as 98%. The IC50 (human P2X4) was 355 nM.
For `CC(=O)N(c1ccc(F)c(Cl)c1)c1cc(NC(=O)Cc2c(Cl)cccc2Cl)ccn1` [Example 53, N-(3-chloro-4-fluorophenyl)-N-{4-[2-(2,6-dichlorophenyl)acetamido]pyridin-2-yl}acetamide], the IC50 (rat P2X4) was 143 nM, the “Rat P2X4 1321N1 Astrocytoma Cells” value (rat P2X4) was 100% and the “Human P2X4 HEK Cells” value (human P2X4) was 100%. It also gave an IC50 (human P2X4) of 455 nM.
In the case of `CC(=O)N(c1cccc(F)c1)c1cc(NC(=O)Cc2ccccc2Cl)ccn1` [Example 54, N-{4-[2-(2-chlorophenyl)acetamido]pyridin-2-yl}-N-(3-fluorophenyl)acetamide], the IC50 (rat P2X4) is reported as 447 nM, the “Rat P2X4 1321N1 Astrocytoma Cells” value (rat P2X4) is reported as 97% and the “Human P2X4 HEK Cells” value (human P2X4) is reported as 97%. It also gave an IC50 (human P2X4) of 269 nM.
For `CC(=O)N(c1cccc(F)c1)c1cc(NC(=O)Cc2ccc(F)cc2Cl)ccn1` [Example 55, N-{4-[2-(2-chloro-4-fluorophenyl)acetamido]pyridin-2-yl}-N-(3-fluorophenyl)acetamide], the IC50 (rat P2X4) was 289 nM, the “Rat P2X4 1321N1 Astrocytoma Cells” value (rat P2X4) was 99% and the “Human P2X4 HEK Cells” value (human P2X4) was 102%. The IC50 (human P2X4) was 611 nM.
`CC(=O)N(c1cccc(F)c1)c1cc(NC(=O)Cc2c(Cl)cccc2Cl)ccn1` [Example 56, N-{4-[2-(2,6-dichlorophenyl)acetamido]pyridin-2-yl}-N-(3-fluorophenyl)acetamide] was tested, and the IC50 (rat P2X4) was 190 nM, the “Rat P2X4 1321N1 Astrocytoma Cells” value (rat P2X4) was 98% and the “Human P2X4 HEK Cells” value (human P2X4) was 97%. The IC50 (human P2X4) was 260 nM.
`CC(=O)N(c1cccc(F)c1)c1cc(NC(=O)Cc2c(Cl)cc(F)cc2Cl)ccn1` [Example 57, N-{4-[2-(2,6-dichloro-4-fluorophenyl)acetamido]pyridin-2-yl}-N-(3-fluorophenyl)acetamide] was tested, and the IC50 (rat P2X4) was 122 nM, the “Rat P2X4 1321N1 Astrocytoma Cells” value (rat P2X4) was 97% and the “Human P2X4 HEK Cells” value (human P2X4) was 99%. For the same compound, the IC50 (human P2X4) was 377 nM.
With `CC(=O)N(c1ccc(Cl)c(F)c1)c1cc(NC(=O)Cc2ccccc2Cl)ccn1` [Example 58, N-(4-chloro-3-fluorophenyl)-N-{4-[2-(2-chlorophenyl)acetamido]pyridin-2-yl}acetamide] the IC50 (rat P2X4) was 350 nM, the “Rat P2X4 1321N1 Astrocytoma Cells” value (rat P2X4) was 86% and the “Human P2X4 HEK Cells” value (human P2X4) was 95%. The IC50 (human P2X4) was 351 nM.
For `CC(=O)N(c1ccc(Cl)c(F)c1)c1cc(NC(=O)Cc2ccc(F)cc2Cl)ccn1` [Example 59, N-(4-chloro-3-fluorophenyl)-N-{4-[2-(2-chloro-4-fluorophenyl)acetamido]pyridin-2-yl}acetamide], the IC50 (rat P2X4) was 240 nM, the “Rat P2X4 1321N1 Astrocytoma Cells” value (rat P2X4) was 81% and the “Human P2X4 HEK Cells” value (human P2X4) was 97%. For the same compound, the IC50 (human P2X4) was 532 nM.
In the case of `CC(=O)N(c1ccc(Cl)c(F)c1)c1cc(NC(=O)Cc2cccc(F)c2Cl)ccn1` [Example 60, N-(4-chloro-3-fluorophenyl)-N-{4-[2-(2-chloro-3-fluorophenyl)acetamido]pyridin-2-yl}acetamide], the IC50 (rat P2X4) is reported as 434 nM, the “Rat P2X4 1321N1 Astrocytoma Cells” value (rat P2X4) is reported as 94% and the “Human P2X4 HEK Cells” value (human P2X4) is reported as 96%. The IC50 (human P2X4) was 454 nM.
`CC(=O)N(c1ccc(F)c(F)c1)c1cc(NC(=O)Cc2cccc(C)c2C)ccn1` [Example 62, N-(3,4-difluorophenyl)-N-{4-[2-(2,3-dimethylphenyl)acetamido]pyridin-2-yl}acetamide] was tested, and the IC50 (rat P2X4) was 368 nM, the “Rat P2X4 1321N1 Astrocytoma Cells” value (rat P2X4) was 91% and the “Human P2X4 HEK Cells” value (human P2X4) was 91%. For the same compound, the IC50 (human P2X4) was 251 nM.
